Laboratory results taken from patent US9062038B2, “Heteroaryls and uses thereof” (Millennium Pharmaceuticals, Inc., priority 2010, dated 2015).

How the values were obtained:
PI3Kalpha = target: T1, PI3Kalpha (Homo sapiens, UniProt P42336); test: Human PI3Kα enzyme assay (HTRF); type: biochemical
T1 construct: His (N); host or cells: SF9 insect cells (baculovirus)
Text: (§1) The catalytic subunits of PI3Ks are cloned into either pDEST8(p110 alpha) or pDEST10(p110beta, p110delta, and p110gamma) as N-terminal His tagged fusion proteins using the Gateway system (Invitrogen, catalog#11804-010 for pDEST8 and 11806-015 for pDEST10). The sequences are verified before recombinant protein expression using the Baculovirus Expression System with Gateway® Technology. The accession numbers for the subunits are as follows: • p110 alpha (GB: U79143) • p110beta (GB: S67334) • p110delta (GB: U86453) • p110gamma (GB: X83368)
(§2) The regulatory subunits of PI3Ks are cloned into pDEST8 as un-tagged protein using the Gateway system (Catalog#11804-010). […]
(§3) 0.5 uL compounds in DMSO are added to wells of a 384 well microtitre plate (Corning 3575). […] Then 5 ul PI3K stop mix (50 mM Hepes, 5 mM DTT, 150 mM NaCl, 0.01% Tween-20, 15 mM EDTA and 25 nM biotin-PI(3,4,5)P3 (Echelon) is added to quench the reaction followed immediately by addition of 5 ul HTRF detection mix (50 mM Hepes, 5 mM DTT, 150 mM NaCl, 0.01% Tween-20, 40 mM KF, 10 nM GST:GRP-1 PH domain (Millennium Protein Sciences Group), 15 nM Streptavidin-XL (CisBio) and 0.375 nM anti-GST antibody (CisBio) at pH 7.00). The plates are then incubated for 1 hour at room temperature with shaking and then read on a BMG PheraStar Plus reader.

PI3K beta = target: T2, PI3K beta (Homo sapiens, UniProt P42338); test: Human PI3K beta enzyme assay (HTRF, procedure as for PI3K alpha); type: biochemical
T2 construct: His (N); host or cells: SF9 insect cells (baculovirus)
Text: as §1, §2
as §3, with “reader. […]” for “reader.”

T1 sequence (P42336 whole entry): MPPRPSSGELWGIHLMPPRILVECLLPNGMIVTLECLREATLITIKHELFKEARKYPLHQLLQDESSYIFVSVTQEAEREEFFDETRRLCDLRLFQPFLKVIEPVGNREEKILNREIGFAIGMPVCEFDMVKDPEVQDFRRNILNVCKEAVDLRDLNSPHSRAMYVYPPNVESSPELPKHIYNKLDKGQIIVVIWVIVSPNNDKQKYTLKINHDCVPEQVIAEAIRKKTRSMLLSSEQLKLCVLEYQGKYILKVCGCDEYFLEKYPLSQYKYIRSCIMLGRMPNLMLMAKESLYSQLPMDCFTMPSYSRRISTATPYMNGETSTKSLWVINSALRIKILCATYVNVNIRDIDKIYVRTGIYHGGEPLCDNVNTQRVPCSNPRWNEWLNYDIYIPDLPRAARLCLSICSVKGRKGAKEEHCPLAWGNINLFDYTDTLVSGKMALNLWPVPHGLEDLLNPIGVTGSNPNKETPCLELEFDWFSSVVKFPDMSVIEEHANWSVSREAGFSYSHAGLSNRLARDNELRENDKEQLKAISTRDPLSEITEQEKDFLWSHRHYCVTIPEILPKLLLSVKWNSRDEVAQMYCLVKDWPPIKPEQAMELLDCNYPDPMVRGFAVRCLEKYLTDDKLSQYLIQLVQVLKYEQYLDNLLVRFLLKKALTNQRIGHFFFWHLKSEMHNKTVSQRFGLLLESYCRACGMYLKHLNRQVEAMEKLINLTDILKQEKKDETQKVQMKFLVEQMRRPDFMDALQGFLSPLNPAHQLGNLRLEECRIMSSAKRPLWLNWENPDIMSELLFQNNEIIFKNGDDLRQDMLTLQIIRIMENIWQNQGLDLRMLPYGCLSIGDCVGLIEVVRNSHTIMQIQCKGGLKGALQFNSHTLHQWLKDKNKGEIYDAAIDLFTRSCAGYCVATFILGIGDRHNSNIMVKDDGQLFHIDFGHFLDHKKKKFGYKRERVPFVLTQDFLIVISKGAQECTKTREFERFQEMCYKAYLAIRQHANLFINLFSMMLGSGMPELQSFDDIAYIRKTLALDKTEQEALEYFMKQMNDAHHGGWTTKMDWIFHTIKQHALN
T1 sequence (P27986 whole entry partner): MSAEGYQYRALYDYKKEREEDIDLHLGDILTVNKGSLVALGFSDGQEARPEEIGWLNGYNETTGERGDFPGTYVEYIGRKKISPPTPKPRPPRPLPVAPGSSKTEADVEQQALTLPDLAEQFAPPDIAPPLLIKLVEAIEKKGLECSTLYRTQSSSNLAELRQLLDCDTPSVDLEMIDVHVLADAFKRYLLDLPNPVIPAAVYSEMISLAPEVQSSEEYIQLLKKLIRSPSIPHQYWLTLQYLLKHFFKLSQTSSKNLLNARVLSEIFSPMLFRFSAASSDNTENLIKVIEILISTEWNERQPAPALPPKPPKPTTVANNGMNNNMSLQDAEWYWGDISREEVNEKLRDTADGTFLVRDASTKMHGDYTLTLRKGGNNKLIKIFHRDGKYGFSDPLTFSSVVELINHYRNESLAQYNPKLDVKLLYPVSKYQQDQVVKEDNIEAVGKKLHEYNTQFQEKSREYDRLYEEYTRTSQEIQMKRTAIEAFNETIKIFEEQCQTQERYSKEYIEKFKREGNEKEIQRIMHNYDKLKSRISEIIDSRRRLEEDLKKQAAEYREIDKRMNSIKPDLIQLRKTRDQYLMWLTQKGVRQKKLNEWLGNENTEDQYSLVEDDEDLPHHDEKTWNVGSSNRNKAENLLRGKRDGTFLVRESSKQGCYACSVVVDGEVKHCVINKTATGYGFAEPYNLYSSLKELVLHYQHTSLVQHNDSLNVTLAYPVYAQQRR
T2 sequence (P42338 whole entry): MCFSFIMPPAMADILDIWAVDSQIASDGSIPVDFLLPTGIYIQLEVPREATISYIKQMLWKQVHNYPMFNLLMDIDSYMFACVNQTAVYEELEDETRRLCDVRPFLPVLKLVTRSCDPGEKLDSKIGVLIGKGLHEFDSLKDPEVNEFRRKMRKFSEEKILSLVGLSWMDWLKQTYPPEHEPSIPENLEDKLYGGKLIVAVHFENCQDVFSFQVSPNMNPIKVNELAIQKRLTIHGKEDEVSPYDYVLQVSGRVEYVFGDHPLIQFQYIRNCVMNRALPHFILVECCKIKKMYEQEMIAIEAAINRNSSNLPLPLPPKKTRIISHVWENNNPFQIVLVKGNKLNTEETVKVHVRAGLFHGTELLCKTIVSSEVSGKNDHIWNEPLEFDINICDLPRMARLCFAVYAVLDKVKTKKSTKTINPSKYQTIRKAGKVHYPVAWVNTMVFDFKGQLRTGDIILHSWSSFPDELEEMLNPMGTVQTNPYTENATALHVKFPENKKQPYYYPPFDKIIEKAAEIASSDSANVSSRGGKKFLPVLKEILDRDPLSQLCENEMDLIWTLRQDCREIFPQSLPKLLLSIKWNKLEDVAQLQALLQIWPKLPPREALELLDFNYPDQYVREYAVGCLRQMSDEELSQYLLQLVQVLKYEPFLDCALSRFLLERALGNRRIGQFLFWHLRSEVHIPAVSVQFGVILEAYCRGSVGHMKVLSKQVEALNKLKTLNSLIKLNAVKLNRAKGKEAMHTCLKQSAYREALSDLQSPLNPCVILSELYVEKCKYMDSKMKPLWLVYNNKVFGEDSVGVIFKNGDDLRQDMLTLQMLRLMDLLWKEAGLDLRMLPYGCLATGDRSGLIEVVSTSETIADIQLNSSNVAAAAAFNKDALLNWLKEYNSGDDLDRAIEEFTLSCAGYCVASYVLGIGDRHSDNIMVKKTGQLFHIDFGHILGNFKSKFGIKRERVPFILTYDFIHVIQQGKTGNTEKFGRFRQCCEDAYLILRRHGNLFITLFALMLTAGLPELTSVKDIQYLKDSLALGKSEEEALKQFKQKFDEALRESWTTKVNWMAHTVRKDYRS
T2 sequence (P27986 whole entry partner): as the sequence (P27986 whole entry partner) above

Compound	IC50 (PI3Kalpha)	IC50 (PI3K beta)
NC(=O)c1nc(-c2ccncc2)oc1Cc1ccc(Cl)cc1 [Compound 1, 5-(4-chlorobenzyl)-2-pyridin-4-yl-1,3-oxazole-4-carboxamide]	> 1000 nM	100 to 1000 nM
Clc1ccc(Cc2oc(-c3ccncc3)nc2-c2nnc[nH]2)cc1 [Compound 2, 4-[5-(4-chlorobenzyl)-4-(4H-1,2,4-triazol-3-yl)-1,3-oxazol-2-yl]pyridine]	> 1000 nM	100 to 1000 nM
